Consider eleven molecules from ChEMBL document CHEMBL4346704, “Novel symmetric bis-benzimidazoles: Synthesis, DNA/RNA binding and antitrypanosomal activity” (Eur J Med Chem, 2019).

Experiment [1] in a line: Binding affinity to polyA-polyU dsRNA (unknown origin) assessed as change in melting temperature at 0.1 ratio of compound to RNA by spectrophotometric analysis. The experiment is classed as nucleic-acid assay.
In experiment [2] the test system is Calf thymus DNA. As to the kind of experiment: Binding affinity to calf thymus DNA assessed as conformational change by circular dichroism analysis. Particulars: Bos taurus. The experiment is classed as nucleic-acid assay.
The test system of experiment [3] is Poly(dA-dU)oligonucleotide. Description: Binding affinity to polyA-polyU dsRNA (unknown origin) assessed as binding constant by UV-vis spectrophotometric method. Type of experiment: nucleic-acid assay.
Experiment [4] relates to Calf thymus DNA. As to the kind of experiment: Binding affinity to calf thymus DNA assessed as hypochromic effect by UV-vis spectrophotometric method relative to control. Type of experiment: nucleic-acid assay. The arrangement: concentration or dose not given beside the values. Particulars: Bos taurus.
In experiment [5] the test system is Calf thymus DNA. Description: Binding affinity to calf thymus DNA by UV-vis spectrophotometric method. Type of experiment: nucleic-acid assay. Particulars: Bos taurus.
Experiment [6] deals with Poly(dA-dU)oligonucleotide. Description: Binding affinity to polyA-polyU dsRNA (unknown origin) assessed as change in melting temperature at 0.3 ratio of compound to RNA by spectrophotometric analysis. The experiment is classed as nucleic-acid assay.
A further experiment relates to L6. As to the kind of experiment: Cytotoxicity against rat L6 cells incubated for 6 days by resazurin based fluorescence assay. Type of experiment: cell-based. The following applies: L6, 144 h. On the technique in general: The colour change of resazurin is a common sign of viable cells or microbes.
A short description of experiment [7]: Ratio of compound concentration to polynucleotide phosphate concentration for binding affinity to polyA-polyU dsRNA (unknown origin). The experiment is classed as nucleic-acid assay.
In experiment [8] the test system is Calf thymus DNA. Description: Ratio of compound concentration to polynucleotide phosphate concentration for binding affinity to calf thymus DNA. The following applies: Bos taurus. The experiment is classed as nucleic-acid assay.
Experiment [9] can be described thus: Binding affinity to polyA-polyU dsRNA (unknown origin) assessed as hypochromic effect by UV-vis spectrophotometric method relative to control. The experiment is classed as nucleic-acid assay. Also on record: concentration or dose not given beside the values.
Experiment [10] relates to Poly(dA-dU)oligonucleotide. As to the kind of experiment: Binding affinity to polyA-polyU dsRNA (unknown origin) assessed as change in melting temperature at 0.5 ratio of compound to RNA by spectrophotometric analysis. Type of experiment: nucleic-acid assay.
Experiment [11] concerns Calf thymus DNA. As to the kind of experiment: Binding affinity to calf thymus DNA assessed as change in melting temperature at compound to calf thymus DNA polynucleotide ratio of 0.5 by spectrophotometric analysis. Type of experiment: nucleic-acid assay. Particulars: Bos taurus.
Experiment [12] deals with Calf thymus DNA. Description: Binding affinity to calf thymus DNA assessed as change in melting temperature at compound to calf thymus DNA polynucleotide ratio of 0.1 by spectrophotometric analysis. The following applies: Bos taurus. The experiment is classed as nucleic-acid assay.
Experiment [13] has as its system Calf thymus DNA. As to the kind of experiment: Binding affinity to calf thymus DNA assessed as change in melting temperature at compound to calf thymus DNA polynucleotide ratio of 0.3 by spectrophotometric analysis. Type of experiment: nucleic-acid assay. Particulars: Bos taurus.
A further experiment deals with Trypanosoma brucei. Description: Antitrypanosomal activity against Trypanosoma brucei 221 incubated for 48 hrs by resazurin based fluorescence assay. The experiment is classed as functional, organism-based. Particulars: Trypanosoma brucei, 221, 48 h.

Each structure is given as a SMILES string. Active and inactive are the calls of the source. No cut-off for these calls is given here. Bounds are passed on as bounds.

Take `Fc1ccc2[nH]c(-c3ccc(Cn4cc(CCCc5cn(Cc6ccc(-c7nc8cc(F)ccc8[nH]7)o6)nn5)nn4)o3)nc2c1`: the ΔTm in experiment [1] is 0.8 °C; in experiment [6], 1.3 °C; in experiment [10], 2 °C; with Calf thymus DNA [11], 2 °C; in the experiment with Calf thymus DNA [12], 0.8 °C; in the experiment on Calf thymus DNA [13], 1.3 °C. Besides, the result in the experiment on Calf thymus DNA [2] was inactive. In addition, the log Ks in experiment [3] worked out at 4.94; in the experiment on Calf thymus DNA [5] it was 6.56. The Activity was found to be 46% with Calf thymus DNA [4] and 31% in experiment [9]. The values for the IC50 in the experiment with L6 and with Trypanosoma brucei were 221 µM and 4 µM, respectively. Also, the Ratio was determined as 0.5 in [7] and 0.15 with Calf thymus DNA [8]. The molecule further had a 90% effect concentration (IC90) in the experiment on Trypanosoma brucei of 8.9 µM.

Regarding `CC(C)NC(=N)c1ccc2[nH]c(-c3ccc(Cn4cc(COCc5cn(Cc6ccc(-c7nc8cc(C(=N)NC(C)C)ccc8[nH]7)o6)nn5)nn4)o3)nc2c1`, the ΔTm stood at 1.3 °C in experiment [1]; 2 °C in experiment [6]; 1.6 °C in experiment [10]; 11.1 °C in the experiment with Calf thymus DNA [11]; 8.1 °C with Calf thymus DNA [12]; 9.7 °C in the experiment on Calf thymus DNA [13]. In addition, the outcome in the experiment with Calf thymus DNA [2] was Active. Moreover, the log Ks in [3] was 6.16; with Calf thymus DNA [5], 5.68. Also, the Activity with Calf thymus DNA [4] came out at 21%; in experiment [9] it was 13%. Besides, the Ratio in experiment [7] is 0.3; with Calf thymus DNA [8] it was 0.67. This molecule had an IC50 in the experiment with Trypanosoma brucei of 7.9 µM. The 90% effect level in the experiment with Trypanosoma brucei (IC90) was put at 10.8 µM.

For the molecule `c1ccc2[nH]c(-c3ccc(Cn4cc(COc5ccc(OCc6cn(Cc7ccc(-c8nc9ccccc9[nH]8)o7)nn6)cc5)nn4)o3)nc2c1`, the ΔTm in experiment [1] was determined as 0 °C; in experiment [6], 0 °C; in experiment [10], 0 °C; with Calf thymus DNA [11], 2.6 °C; with Calf thymus DNA [12], 2.8 °C; with Calf thymus DNA [13], 3.2 °C. For the same molecule, in the experiment on Calf thymus DNA [2], the result was inactive. The values for the log Ks (in [3]; with Calf thymus DNA [5]) were 5.5 and 6.18, respectively. Besides, the Activity in the experiment on Calf thymus DNA [4] stood at 35%; in experiment [9], 22%. Besides, the Ratio in experiment [7] amounted to 0.3; in the experiment on Calf thymus DNA [8], 0.1. In the experiment with Trypanosoma brucei, this molecule registered an IC50 of more than 15 µM.

Consider `Clc1ccc2[nH]c(-c3ccc(Cn4cc(COc5ccc(-c6ccc(OCc7cn(Cc8ccc(-c9nc%10cc(Cl)ccc%10[nH]9)o8)nn7)cc6)cc5)nn4)o3)nc2c1`, for which, in the experiment with Calf thymus DNA [2], the result was inactive. For the same molecule, the figures for the Activity (with Calf thymus DNA [4]; in [9]) were 16% and 15%, respectively. Also, the log Ks with Calf thymus DNA [5] stood at 4. Besides, the thermal shift (ΔTm) (in experiment [6]; in the experiment on Calf thymus DNA [13]) was 0 °C throughout. Besides, the IC50 in the experiment on L6 was found to be 30.4 µM; in the experiment with Trypanosoma brucei, 0.37 µM. In the experiment on Calf thymus DNA [8], the Ratio was 0.3. Further, the 90% effect level in the experiment on Trypanosoma brucei (IC90) was put at 9.7 µM.

In the case of `c1ccc2[nH]c(-c3ccc(Cn4cc(COc5ccc(-c6ccc(OCc7cn(Cc8ccc(-c9nc%10ccccc%10[nH]9)o8)nn7)cc6)cc5)nn4)o3)nc2c1`, the result with Calf thymus DNA [2] was inactive. Besides, the Activity is 14% with Calf thymus DNA [4] and 12% in experiment [9]. The log Ks in the experiment on Calf thymus DNA [5] came to 4. For the same molecule, the ΔTm (in [6]; with Calf thymus DNA [13]) was 0 °C in each case. In addition, the Ratio with Calf thymus DNA [8] was determined as 0.3. Further, the IC50 in the experiment on Trypanosoma brucei is more than 10 µM.

With `c1ccc2[nH]c(-c3ccc(Cn4cc(COCc5cn(Cc6ccc(-c7nc8ccccc8[nH]7)o6)nn5)nn4)o3)nc2c1`, the thermal shift (ΔTm) stood at 0.6 °C in [1]; 0 °C in [6]; 0.6 °C in experiment [10]; 1.1 °C in the experiment with Calf thymus DNA [11]; 0.6 °C in the experiment with Calf thymus DNA [12]; 0.7 °C in the experiment with Calf thymus DNA [13]. For the same molecule, the outcome in the experiment with Calf thymus DNA [2] was inactive. The log Ks was found to be 5.76 in experiment [3] and 6.22 in the experiment with Calf thymus DNA [5]. Also, the Activity was 36% with Calf thymus DNA [4] and 41% in experiment [9]. The values for the Ratio (in experiment [7]; in the experiment with Calf thymus DNA [8]) were 0.31 and 0.29, respectively. Moreover, in the experiment on Trypanosoma brucei, the IC50 is more than 15 µM.

On to `Clc1ccc2[nH]c(-c3ccc(Cn4cc(COc5ccc(OCc6cn(Cc7ccc(-c8nc9cc(Cl)ccc9[nH]8)o7)nn6)cc5)nn4)o3)nc2c1`, for which the thermal shift (ΔTm) in experiment [1] amounted to 0 °C; in experiment [6], 0 °C; in experiment [10], 0 °C; with Calf thymus DNA [11], 2 °C; in the experiment with Calf thymus DNA [12] it was 0.7 °C; in the experiment with Calf thymus DNA [13], 1.5 °C. The result with Calf thymus DNA [2] was inactive. Also, the Activity amounted to 27% with Calf thymus DNA [4] and 7% in [9]. The log Ks with Calf thymus DNA [5] came to 6.33. Also, the figures for the IC50 in the experiment with L6 and in the experiment on Trypanosoma brucei were more than 270 µM and 1.4 µM, respectively. In addition, in the experiment on Calf thymus DNA [8], the Ratio worked out at 0.65. Also, the 90% effect level in the experiment with Trypanosoma brucei (IC90) was put at 2.5 µM.

In the case of `c1ccc2[nH]c(-c3ccc(Cn4cc(CCCc5cn(Cc6ccc(-c7nc8ccccc8[nH]7)o6)nn5)nn4)o3)nc2c1`, the ΔTm in experiment [1] is 0 °C; in [6], 0 °C; in experiment [10], 0 °C; with Calf thymus DNA [11], 3.2 °C; in the experiment with Calf thymus DNA [12], 2.6 °C; with Calf thymus DNA [13], 1.2 °C. The outcome with Calf thymus DNA [2] was inactive. For the same molecule, the log Ks in [3] came to 6.54; in the experiment with Calf thymus DNA [5], 6.55. For the same molecule, the Activity in the experiment on Calf thymus DNA [4] came out at 45%; in experiment [9], 10%. Also, the Ratio in [7] came out at 0.13; in the experiment on Calf thymus DNA [8] it was 0.19. Moreover, the IC50 with Trypanosoma brucei is more than 15 µM.

As for `Fc1ccc2[nH]c(-c3ccc(Cn4cc(COc5ccc(OCc6cn(Cc7ccc(-c8nc9cc(F)ccc9[nH]8)o7)nn6)cc5)nn4)o3)nc2c1`, the ΔTm is 0 °C in [1]; 0 °C in experiment [6]; 0 °C in experiment [10]; 3.4 °C in the experiment on Calf thymus DNA [11]; 0.5 °C in the experiment with Calf thymus DNA [12]; 1.2 °C with Calf thymus DNA [13]. In addition, the outcome in the experiment on Calf thymus DNA [2] was inactive. The Activity in the experiment on Calf thymus DNA [4] came to 25%; in experiment [9] it was 11%. In the experiment on Calf thymus DNA [5], this molecule came in with a log Ks of 5.92. The IC50 amounted to 219 µM with L6 and 3.4 µM in the experiment with Trypanosoma brucei. For the same molecule, in the experiment on Calf thymus DNA [8], the Ratio came out at 0.17. In addition, the 90% effect concentration (IC90) in the experiment with Trypanosoma brucei amounted to 6.7 µM.

On to `Clc1ccc2[nH]c(-c3ccc(Cn4cc(COCc5cn(Cc6ccc(-c7nc8cc(Cl)ccc8[nH]7)o6)nn5)nn4)o3)nc2c1`, for which the ΔTm stood at 1 °C in [1]; 0.6 °C in experiment [6]; 0.6 °C in [10]; 2.6 °C with Calf thymus DNA [11]; 0.7 °C in the experiment with Calf thymus DNA [12]; 1.2 °C with Calf thymus DNA [13]. In the experiment on Calf thymus DNA [2], the result was inactive. The log Ks in experiment [3] came to 5.12; in the experiment on Calf thymus DNA [5], 5.21. The Activity turned out to be 35% in the experiment with Calf thymus DNA [4] and 52% in experiment [9]. Further, the Ratio amounted to 0.19 in experiment [7] and 0.21 with Calf thymus DNA [8]. This molecule registered an IC50 with Trypanosoma brucei of 6.4 µM. Besides, it took 11.8 µM to reach the 90% level in the experiment with Trypanosoma brucei (IC90).

With `Fc1ccc2[nH]c(-c3ccc(Cn4cc(COCc5cn(Cc6ccc(-c7nc8cc(F)ccc8[nH]7)o6)nn5)nn4)o3)nc2c1`, the ΔTm is 1 °C in experiment [1]; 1 °C in [6]; 1 °C in [10]; 0 °C with Calf thymus DNA [11]; 0 °C in the experiment on Calf thymus DNA [12]; 0.5 °C in the experiment with Calf thymus DNA [13]. Further, the outcome with Calf thymus DNA [2] was inactive. Besides, the log Ks in [3] turned out to be 6.43; in the experiment on Calf thymus DNA [5] it was 5.93. The Activity in the experiment on Calf thymus DNA [4] came to 35%; in experiment [9], 51%. Also, the Ratio in experiment [7] amounted to 0.35; in the experiment with Calf thymus DNA [8], 0.47. The 50% inhibitory concentration (IC50) with Trypanosoma brucei was 7.9 µM. For the same molecule, the IC90 with Trypanosoma brucei was more than 25 µM.

As a reminder, the ΔTm is the change in melting temperature against a reference sample. Broadly, the IC50 is the point on the concentration scale where inhibition reaches its midpoint. As usually defined, the IC90 is the point of the concentration-response curve where the effect stands at 90%.
